Data taken from patent publication US7138361B2, “Herbicidal heterocycles” (E. I. du Pont de Nemours and Company, priority 2000, dated 2006).

What was measured:
Assay type in all cases: in vivo
[1] = system: duck salad (Heteranthera limosa); experiment: Test C flooded paddy test; details: for Ducksalad plant response rating: Flooded Paddy, scale 0 to 100, 0 no effect, 100 complete control; for Plant response rating, Ducksalad: flooded paddy test, scale 0 to 100 (0 no effect, 100 complete control)
Method in brief: (§1)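 Visual injury score, 0 (no effect) to 100 (complete control), relative to controls. Paddy plants treated at 2-leaf stage; greenhouse hold 12–14 d before rating.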

[2] = system: smallflower flatsedge (Cyperus difformis); experiment: Test C flooded paddy test; details: for Flatsedge plant response rating: Flooded Paddy, scale 0 to 100, 0 no effect, 100 complete control; for Plant response rating, Flatsedge: flooded paddy test, scale 0 to 100 (0 no effect, 100 complete control)
Method in brief: as §1

[3] = system: barnyardgrass (Echinochloa crus-galli); experiment: Test C flooded paddy test; details: for Barnyardgrass plant response rating: Flooded Paddy, scale 0 to 100, 0 no effect, 100 complete control; for Plant response rating, Barnyardgrass: flooded paddy test, scale 0 to 100 (0 no effect, 100 complete control)
Method in brief: as §1

corn (Zea mays) = experiment: Test C preemergence; details: for Plant response rating, Corn: scale 0 to 100, 0 no effect, 100 complete control; for Plant response rating (0 to 100), Corn: preemergence, visual evaluation after 12 to 14 days
Method in brief: (§2)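 Response scores (0 no effect to 100 complete control) came from visual comparison with untreated controls 12 to 14 days after treatment. Preemergence application was made to seeded soil; postemergence, to plants at the 1- to 4-leaf stage.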

[4] = system: lambsquarters (Chenopodium album); experiment: Test C preemergence; details: for Plant response rating, Lambsquarters: scale 0 to 100, 0 no effect, 100 complete control
Method in brief: as §2

Sunflower [5] = experiment: Test C preemergence; details: Rate 125 g/ha; scale 0 to 100, 0 no effect, 100 complete control
Nightshade = experiment: Test C preemergence; details: scale 0 to 100, 0 no effect, 100 complete control
[6] = system: giant foxtail (Setaria faberii); experiment: Test C preemergence; details: for Plant response rating, Foxtail, Giant: scale 0 to 100, 0 no effect, 100 complete control; for Plant response rating (0 to 100), Foxtail, Giant: preemergence, visual evaluation after 12 to 14 days
Method in brief: as §2

[7] = system: woolly cupgrass (Eriochloa villosa); experiment: Test C preemergence; details: for Plant response rating, Cupgrass, Woolly: scale 0 to 100, 0 no effect, 100 complete control; for Plant response rating (0 to 100), Cupgrass, Woolly: preemergence, visual evaluation after 12 to 14 days
Method in brief: as §2

soybean (Glycine max) = experiment: Test C preemergence; details: for Plant response rating, Soybean: scale 0 to 100, 0 no effect, 100 complete control
Method in brief: as §2

[8] = system: Surinam grass (Brachiaria decumbens); experiment: Test C preemergence; details: for Plant response rating, Surinam grass: scale 0 to 100, 0 no effect, 100 complete control; for Plant response rating (0 to 100), Surinam grass: preemergence, visual evaluation after 12 to 14 days
Method in brief: as §2

[9] = system: goosegrass (Eleusine indica); experiment: Test C preemergence; details: for Plant response rating, Goosegrass: scale 0 to 100, 0 no effect, 100 complete control; for Plant response rating (0 to 100), Goosegrass: preemergence, visual evaluation after 12 to 14 days
Method in brief: as §2

[10] = system: bermudagrass (Cynodon dactylon); experiment: Test C preemergence; details: for Plant response rating, Bermudagrass: scale 0 to 100, 0 no effect, 100 complete control; for Plant response rating (0 to 100 where 0 is no effect and 100 is complete control), Bermudagrass: preemergence, visual evaluation after 12 to 14 days
Method in brief: as §2

[11] = system: morningglory (Ipomoea hederacea); experiment: Test C preemergence; details: for Plant response rating, Morningglory: scale 0 to 100, 0 no effect, 100 complete control
Method in brief: as §2

[12] = system: velvetleaf (Abutilon theophrasti); experiment: Test C preemergence; details: for Plant response rating, Velvetleaf: scale 0 to 100, 0 no effect, 100 complete control
Method in brief: as §2

[13] = system: johnsongrass (Sorghum halepense); experiment: Test C preemergence; details: for Plant response rating, Johnsongrass: scale 0 to 100, 0 no effect, 100 complete control; for Plant response rating (0 to 100), Johnsongrass: preemergence, visual evaluation after 12 to 14 days
Method in brief: as §2

[14] = system: crabgrass (Digitaria sanguinalis); experiment: Test C preemergence; details: for Plant response rating, Crabgrass: scale 0 to 100, 0 no effect, 100 complete control; for Plant response rating (0 to 100), Crabgrass: preemergence, visual evaluation after 12 to 14 days
Method in brief: as §2

[15] = system: pigweed (Amaranthus retroflexus); experiment: Test C preemergence; details: for Plant response rating, Pigweed: scale 0 to 100, 0 no effect, 100 complete control
Method in brief: as §2

kochia (Kochia scoparia) = experiment: Test C preemergence; details: for Plant response rating, Kochia: scale 0 to 100, 0 no effect, 100 complete control; for Plant response rating (0 to 100), Kochia: preemergence, visual evaluation after 12 to 14 days
Method in brief: as §2

[16] = system: cocklebur (Xanthium strumarium); experiment: Test C preemergence; details: for Plant response rating, Cocklebur: scale 0 to 100, 0 no effect, 100 complete control; for Plant response rating (0 to 100), Cocklebur: preemergence, visual evaluation after 12 to 14 days
Method in brief: as §2

[17] = system: yellow nutsedge (Cyperus esculentus); experiment: Test C preemergence; details: for Plant response rating, Nutsedge: scale 0 to 100, 0 no effect, 100 complete control
Method in brief: as §2

Sunflower [18] = experiment: Test C preemergence; details: Rate 500 g/ha, visual evaluation after 12 to 14 days
[19] = preemergence, Rate 500 g/ha, visual evaluation after 12 to 14 days

Cc1ccc(N2CCC(n3ccc(C(C)(C)C)n3)C2=O)cc1OC(F)F (stereo not drawn) [Compound 79]
20: Plant response rating, Nightshade (Nightshade; Rate 62 g/ha) | Plant response rating, Surinam grass ([8]; Rate 125 g/ha) | Plant response rating, Velvetleaf ([12]; preemergence, Rate 250 g/ha) | Plant response rating, Pigweed ([15]; preemergence, Rate 250 g/ha)
40: Plant response rating, Barnyardgrass ([3]; Rate 125 g/ha)
30: Plant response rating, Ducksalad ([1]; Rate 125 g/ha) | Plant response rating, Barnyardgrass ([3]; Rate 62 g/ha) | Plant response rating, Morningglory ([11]; preemergence, Rate 250 g/ha) | Plant response rating (0 to 100), Cocklebur ([16]; Rate 500 g/ha)
70: Plant response rating (0 to 100), Morningglory [11, 19]
90: Ducksalad plant response rating ([1]; Rate 250 g/ha) | Ducksalad plant response rating ([1]; Rate 500 g/ha) | Flatsedge plant response rating ([2]; Rate 250 g/ha) | Flatsedge plant response rating ([2]; Rate 500 g/ha) | Plant response rating, Flatsedge ([2]; Rate 62 g/ha) | Plant response rating, Flatsedge ([2]; Rate 125 g/ha) | Barnyardgrass plant response rating ([3]; Rate 250 g/ha) | Barnyardgrass plant response rating ([3]; Rate 500 g/ha) | Plant response rating, Cupgrass, Woolly ([7]; Rate 62 g/ha) | Plant response rating, Cupgrass, Woolly ([7]; Rate 125 g/ha) | Plant response rating, Goosegrass ([9]; Rate 125 g/ha)
50: Plant response rating, Nightshade (Nightshade; Rate 125 g/ha) | Plant response rating, Nightshade (Nightshade; Rate 250 g/ha) | Plant response rating (0 to 100), Soybean (soybean (Glycine max); [19]) | Plant response rating (0 to 100), Velvetleaf [12, 19]
100: Plant response rating, Lambsquarters ([4]; Rate 62 g/ha) | Plant response rating, Lambsquarters ([4]; Rate 125 g/ha) | Plant response rating (0 to 100), Lambsquarters [4, 19] | Plant response rating, Lambsquarters ([4]; preemergence, Rate 250 g/ha) | Plant response rating (0 to 100), Cupgrass, Woolly ([7]; Rate 250 g/ha) | Plant response rating (0 to 100), Cupgrass, Woolly ([7]; Rate 500 g/ha) | Plant response rating (0 to 100), Surinam grass ([8]; Rate 500 g/ha) | Plant response rating (0 to 100), Goosegrass ([9]; Rate 250 g/ha) | Plant response rating (0 to 100), Goosegrass ([9]; Rate 500 g/ha) | Plant response rating, Bermudagrass ([10]; Rate 62 g/ha) | Plant response rating, Bermudagrass ([10]; Rate 125 g/ha) | Plant response rating (0 to 100 where 0 is no effect and 100 is complete control), Bermudagrass ([10]; Rate 250 g/ha) | Plant response rating (0 to 100 where 0 is no effect and 100 is complete control), Bermudagrass ([10]; Rate 500 g/ha) | Plant response rating, Crabgrass ([14]; Rate 62 g/ha) | Plant response rating, Crabgrass ([14]; Rate 125 g/ha) | Plant response rating (0 to 100), Crabgrass ([14]; Rate 250 g/ha) | Plant response rating (0 to 100), Crabgrass ([14]; Rate 500 g/ha) | Plant response rating (0 to 100), Pigweed [15, 19] | Plant response rating, Kochia (kochia (Kochia scoparia); Rate 62 g/ha) | Plant response rating, Kochia (kochia (Kochia scoparia); Rate 125 g/ha) | Plant response rating (0 to 100), Kochia (kochia (Kochia scoparia); Rate 250 g/ha) | Plant response rating (0 to 100), Kochia (kochia (Kochia scoparia); Rate 500 g/ha)
80: Plant response rating, Goosegrass ([9]; Rate 62 g/ha)
10: Plant response rating, Pigweed ([15]; Rate 125 g/ha)
0: Plant response rating, Ducksalad ([1]; Rate 62 g/ha) | Plant response rating, Corn (corn (Zea mays); Rate 62 g/ha) | Plant response rating, Corn (corn (Zea mays); Rate 125 g/ha) | Plant response rating (0 to 100), Corn (corn (Zea mays); Rate 250 g/ha) | Plant response rating (0 to 100), Corn (corn (Zea mays); Rate 500 g/ha) | Plant response rating, Sunflower (Sunflower [5]) | Plant response rating, Foxtail, Giant ([6]; Rate 62 g/ha) | Plant response rating, Foxtail, Giant ([6]; Rate 125 g/ha) | Plant response rating (0 to 100), Foxtail, Giant ([6]; Rate 250 g/ha) | Plant response rating (0 to 100), Foxtail, Giant ([6]; Rate 500 g/ha) | Plant response rating, Soybean (soybean (Glycine max); Rate 125 g/ha) | Plant response rating, Soybean (soybean (Glycine max); preemergence, Rate 250 g/ha) | Plant response rating, Surinam grass ([8]; Rate 62 g/ha) | Plant response rating, Morningglory ([11]; Rate 62 g/ha) | Plant response rating, Morningglory ([11]; Rate 125 g/ha) | Plant response rating, Velvetleaf ([12]; Rate 125 g/ha) | Plant response rating, Johnsongrass ([13]; Rate 62 g/ha) | Plant response rating, Johnsongrass ([13]; Rate 125 g/ha) | Plant response rating (0 to 100), Johnsongrass ([13]; Rate 250 g/ha) | Plant response rating (0 to 100), Johnsongrass ([13]; Rate 500 g/ha) | Plant response rating, Cocklebur ([16]; Rate 62 g/ha) | Plant response rating, Cocklebur ([16]; Rate 125 g/ha) | Plant response rating (0 to 100), Cocklebur ([16]; Rate 250 g/ha) | Plant response rating, Nutsedge ([17]; Rate 62 g/ha) | Plant response rating, Nutsedge ([17]; Rate 125 g/ha) | Plant response rating (0 to 100), Nutsedge [17, 19] | Plant response rating, Nutsedge ([17]; preemergence, Rate 250 g/ha)
60: Plant response rating (0 to 100), Surinam grass ([8]; Rate 250 g/ha) | Plant response rating (0 to 100), Sunflower (Sunflower [18])
